Test results published in patent US20230000813A1, “COMPOUND FOR THE TREATMENT OF BOVINE OR SWINE RESPIRATORY DISEASE” (Intervet Inc., priority 2016, published 2023).
Values after ≈ are worked out from the molar mass of the structure shown.

Columns and labels:
Assay in all cases: MIC, broth-microdilution (CLSI VET01-A4)
Type in all cases: cell-based
[1] = tested on: Mannheimia haemolytica MH 6357 (M7/2, reference strain, cattle infection strain); details: Mannheimia haemolytica MH 6357; read-out: MIC MH 6357
In short: (§1)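 Test compound is serially diluted twofold across microdilution trays, bacteria are grown, and wells are inspected by eye. The lowest concentration showing no growth is recorded as the MIC.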

[2] = tested on: Pasteurella multocida PM 6391 (ATCC 43137, reference strain); details: Pasteurella multocida PM 6391; for MIC: read-out: MIC PM 6391
In short: as §1

[3] = tested on: Pasteurella multocida PM 12080 (IV102277-0093, BRD field isolate); details: Pasteurella multocida PM 12080; for MIC: read-out: MIC PM 12080
In short: as §1

[4] = tested on: Mannheimia haemolytica MH 12587 (1071, BRD field isolate, macrolide-resistance: erm+, E+); details: Mannheimia haemolytica MH 12587, macrolide-resistant
In short: as §1

[5] = tested on: Pasteurella multocida PM 6267 (P 2225 (L386), reference strain, mouse infection strain); details: Pasteurella multocida PM 6267
In short: as §1

[6] = tested on: Pasteurella multocida PM 10775 (080130003051, BRD field isolate); details: Pasteurella multocida PM 10775
In short: as §1

[7] = tested on: Mannheimia haemolytica MH 6374 (ATCC 33396, reference strain); details: Mannheimia haemolytica MH 6374; read-out: MIC MH 6374
In short: as §1

[8] = tested on: Mannheimia haemolytica MH 10720 (154, BRD field isolate); details: Mannheimia haemolytica MH 10720; for MIC: read-out: MIC MH 10720
In short: as §1

[9] = tested on: Mannheimia haemolytica MH 13065 (XB0446-6003.9, BRD field isolate)
In short: (§2)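 MIC read by eye as lowest compound concentration without visible growth (no turbidity), interpreted per CLSI VET01-S3. Doubling-dilution broth-microdilution trays, run according to CLSI VET01-A4.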

[10] = tested on: Mannheimia haemolytica MH 13093 (XB0472-6014.1, BRD field isolate)
In short: as §2

Row | SMILES | MIC [1] [µM] | MIC [2] [µM] | MIC [3] [µM] | MIC MH 12587 [4] [µM] | MIC PM 6267 [5] | MIC PM 10775 [6] | MIC [7] [µM] | MIC MH 10720 [8] | MIC [9] [µM] | MIC [10] [µM] | MIC ([5]; read-out: MIC PM 6267) [µM] | MIC ([6]; read-out: MIC PM 10775) [µM] | MIC [8] [µM] | MIC PM 6391 [2] | MIC PM 12080 [3]
1 | CC(C)C(NC(=O)c1ccc(C#Cc2ccc(CNCc3ccco3)cc2)cc1)C(=O)NO (stereo not drawn) [Compound 290] | 0.2 (≈ 0.0891 µg/mL) | 0.4 (≈ 0.178 µg/mL) | 0.2 (≈ 0.0891 µg/mL) | 0.4 (≈ 0.178 µg/mL) | <=0.1 μM | <=0.1 μM | 0.4 (≈ 0.178 µg/mL) | <=0.1 μM | 0.4 (≈ 0.178 µg/mL) | 0.4 (≈ 0.178 µg/mL) | – | – | – | – | –
2 | CSC(C)(C)[C@H](NC(=O)c1ccc(C#Cc2ccc(CNCc3ccnc(Cl)c3)cc2)cc1)C(=O)NO [Compound 594] | 1.6 (≈ 0.859 µg/mL) | 0.8 (≈ 0.43 µg/mL) | 0.8 (≈ 0.43 µg/mL) | 1.6 (≈ 0.859 µg/mL) | – | – | 1.6 (≈ 0.859 µg/mL) | – | 1.6 (≈ 0.859 µg/mL) | 1.6 (≈ 0.859 µg/mL) | 0.4 (≈ 0.215 µg/mL) | 0.2 (≈ 0.107 µg/mL) | 0.4 (≈ 0.215 µg/mL) | – | –
3 | C#CCNCc1ccc(C#Cc2ccc(C(=O)NC(C(=O)NO)C(C)(C)N)cc2)cn1 (racemic) [Compound 647] | 1.6 (≈ 0.671 µg/mL) | 0.4 (≈ 0.168 µg/mL) | 0.4 (≈ 0.168 µg/mL) | 1.6 (≈ 0.671 µg/mL) | <=0.1 μM | <=0.1 μM | 0.8 (≈ 0.336 µg/mL) | – | 0.8 (≈ 0.336 µg/mL) | 0.8 (≈ 0.336 µg/mL) | – | – | 0.4 (≈ 0.168 µg/mL) | – | –
4 | C[C@@H](O)[C@H](NC(=O)c1ccc(C#Cc2ccc(CNCc3ccco3)cc2)cc1)C(=O)NO [C. 259] | 0.2 (≈ 0.0895 µg/mL) | – | – | 0.4 (≈ 0.179 µg/mL) | <=0.1 μM | <=0.1 μM | 0.2 (≈ 0.0895 µg/mL) | <=0.1 μM | 0.4 (≈ 0.179 µg/mL) | 0.4 (≈ 0.179 µg/mL) | – | – | – | <=0.1 μM | <=0.1 μM
5 | COc1ccc(CNCc2ccc(C#Cc3ccc(C(=O)N[C@H](C(=O)NO)[C@@H](C)O)cc3)s2)cc1 [Compound 306] | 0.4 (≈ 0.197 µg/mL) | 0.2 (≈ 0.0987 µg/mL) | 0.2 (≈ 0.0987 µg/mL) | 0.8 (≈ 0.395 µg/mL) | <=0.1 μM | <=0.1 μM | 0.4 (≈ 0.197 µg/mL) | <=0.1 μM | 0.4 (≈ 0.197 µg/mL) | 0.8 (≈ 0.395 µg/mL) | – | – | – | – | –
6 | CC(C)(O)C(NC(=O)c1ccc(C#Cc2ccc(CNC3CC3)cc2)cc1)C(=O)NO (stereo not drawn) [Compound 565] | 1.6 (≈ 0.674 µg/mL) | – | – | 1.6 (≈ 0.674 µg/mL) | <=0.1 μM | <=0.1 μM | 0.4 (≈ 0.169 µg/mL) | <=0.1 μM | 0.4 (≈ 0.169 µg/mL) | 0.8 (≈ 0.337 µg/mL) | – | – | – | <=0.1 μM | <=0.1 μM
7 | CC(C)(O)[C@H](NC(=O)c1ccc(C#Cc2ccc(CNCc3ccncc3)cc2)cc1)C(=O)NO [Compound 651] | 0.4 (≈ 0.189 µg/mL) | – | – | 0.4 (≈ 0.189 µg/mL) | <=0.1 μM | <=0.1 μM | 0.2 (≈ 0.0945 µg/mL) | <=0.1 μM | 0.2 (≈ 0.0945 µg/mL) | 0.4 (≈ 0.189 µg/mL) | – | – | – | <=0.1 μM | <=0.1 μM
8 | CSC(C)(C)[C@H](NC(=O)c1ccc(C#Cc2ccc(CNCc3ccncc3)cc2)cc1)C(=O)NO [Compound 587] | 0.4 (≈ 0.201 µg/mL) | – | – | 0.8 (≈ 0.402 µg/mL) | <=0.1 μM | <=0.1 μM | 0.8 (≈ 0.402 µg/mL) | <=0.1 μM | 0.4 (≈ 0.201 µg/mL) | 0.4 (≈ 0.201 µg/mL) | – | – | – | <=0.1 μM | <=0.1 μM
9 | CSC(C)(C)C(NC(=O)c1ccc(C#Cc2ccc(CNC3CC3)cc2)cc1)C(=O)NO (stereo not drawn) [Compound 581] | 0.4 (≈ 0.181 µg/mL) | – | – | 1.6 (≈ 0.723 µg/mL) | <=0.1 μM | <=0.1 μM | 0.8 (≈ 0.361 µg/mL) | <=0.1 μM | 0.4 (≈ 0.181 µg/mL) | 0.4 (≈ 0.181 µg/mL) | – | – | – | <=0.1 μM | <=0.1 μM
10 | C[C@@H](O)[C@H](NC(=O)c1ccc(C#Cc2ccc(N)cc2)cc1)C(=O)NO [C. 245, 4-[2-(4-aminophenyl)ethynyI]-N-[(1S,2R)-2-hydroxy-1-(hydroxycarbamoyl)propyl]benzamide] | 0.2 (≈ 0.0707 µg/mL) | 0.2 (≈ 0.0707 µg/mL) | – | 0.8 (≈ 0.283 µg/mL) | <=0.1 μM | <=0.1 μM | 0.4 (≈ 0.141 µg/mL) | <=0.1 μM | 0.4 (≈ 0.141 µg/mL) | 0.4 (≈ 0.141 µg/mL) | – | – | – | – | <=0.1 μM
11 | CC(C)(C(NC(=O)c1ccc(C#Cc2ccc(CNCc3cccnc3)cc2)cc1)C(=O)NO)S(C)(=O)=O (stereo not drawn) [C. 613] | 0.8 (≈ 0.428 µg/mL) | – | – | 1.6 (≈ 0.855 µg/mL) | <=0.1 μM | <=0.1 μM | 0.4 (≈ 0.214 µg/mL) | <=0.1 μM | 0.8 (≈ 0.428 µg/mL) | 0.8 (≈ 0.428 µg/mL) | – | – | – | <=0.1 μM | <=0.1 μM
12 | CSC(C)(C)[C@H](NC(=O)c1ccc(C#Cc2ccc(CNCc3cccnc3)cc2)cc1)C(=O)NO [Compound 593] | 0.4 (≈ 0.201 µg/mL) | 0.8 (≈ 0.402 µg/mL) | 0.2 (≈ 0.101 µg/mL) | 0.8 (≈ 0.402 µg/mL) | <=0.1 μM | <=0.1 μM | 0.8 (≈ 0.402 µg/mL) | – | 0.4 (≈ 0.201 µg/mL) | 0.8 (≈ 0.402 µg/mL) | – | – | 0.2 (≈ 0.101 µg/mL) | – | –
13 | CSC(C)(C)[C@H](NC(=O)c1ccc(C#Cc2ccc(CNCc3ccco3)cc2)cc1)C(=O)NO [Compound 596] | 0.4 (≈ 0.197 µg/mL) | 0.2 (≈ 0.0983 µg/mL) | – | 0.8 (≈ 0.393 µg/mL) | <=0.1 μM | <=0.1 μM | 0.8 (≈ 0.393 µg/mL) | <=0.1 μM | 0.4 (≈ 0.197 µg/mL) | 0.4 (≈ 0.197 µg/mL) | – | – | – | – | <=0.1 μM
14 | COc1ccc(CNCc2ccc(C#Cc3ccc(C(=O)NC(C(=O)NO)C(C)(C)O)cc3)cc2)cc1 (stereo not drawn) [Compound 570] | 0.8 (≈ 0.401 µg/mL) | 0.4 (≈ 0.201 µg/mL) | – | 1.6 (≈ 0.803 µg/mL) | <=0.1 μM | <=0.1 μM | 0.8 (≈ 0.401 µg/mL) | <=0.1 μM | 0.8 (≈ 0.401 µg/mL) | 0.8 (≈ 0.401 µg/mL) | – | – | – | – | <=0.1 μM
15 | CSC(C)(C)[C@H](NC(=O)c1ccc(C#Cc2ccc(CNCC#N)cc2)cc1)C(=O)NO [Compound 592] | 0.4 (≈ 0.18 µg/mL) | 0.2 (≈ 0.0901 µg/mL) | 0.2 (≈ 0.0901 µg/mL) | 0.8 (≈ 0.36 µg/mL) | <=0.1 μM | <=0.1 μM | 0.8 (≈ 0.36 µg/mL) | <=0.1 μM | 0.8 (≈ 0.36 µg/mL) | 0.4 (≈ 0.18 µg/mL) | – | – | – | – | –
